Measurements published in US7314621B2, “Cytidine deaminase” (Kyoto University, priority 1999, dated 2008).

Experiments:
[1] = target: T1, AID protein (Mus musculus, UniProt Q9WVE0); experiment: Inhibition of the cytidine deaminase activity of the AID-GST fusion protein; format: biochemical; settings: for inhibition of the cytidine deaminase activity of AID protein: 20 mM printed for 1,10-o-phenanthroline, both isomers tested 0 to 20 mM; for inhibition of the cytidine deaminase activity of AID protein (in words): zinc chelator and inactive isomer
T1 construct: a full length AID cDNA was expressed as a fusion protein with glutathione S-transferase (GST); made in house; host or cells: E. coli DH5alpha
Protocol: The purified AID-GST fusion protein prepared in the above (2, 4, 6, 8, 10, 20, 40, 60, 100, 200, 300, 400, and 600 ng) was incubated in the buffer (pH 7.5, the total amount 10 μl) containing 45 mM Tris with 3.3 μCi [^3H] deoxycytidine (24.8 Ci/mmol, DuPont) and 250 μM cytidine for 2 to 4 hours. The reaction was terminated by adding deoxycytidine (2 μl of 10 μg/ml) and deoxyuridine (2 μl of 10 μg/ml). Insoluble substances were removed by centrifugation, and the reaction mixture (4 μl) was subjected to the polyethylene imine-cellulose thin layer chromatography plate (VWR). The plate was developed in isopropyl alcohol/10% HCl (7:2 v/v). The plate was exposed to ultraviolet light (254 nm) for visualization and bands corresponding to deoxycytidine and deoxyuridine were collected, and added to Ultima Gold scintillation solution to be quantified by liquid scintillation photometer (Packard)

[2] = system: AID mRNA in mouse B cell clone CH12F3-2; experiment: Cytokine-induced AID (23C9) mRNA expression, Northern blotting; format: cell-based; settings: cycloheximide 200 ng/ml, 12 hours, IL-4, TGF-β, CD40L
Protocol: The degree of enhanced expression of the gene coding for a novel protein 23C9 in mouse B cell clone CH12F3-2 stimulated with IL-4, TGF-β and CD40L was analyzed according to the standard method (L. Sambrook, E. F., Tom Maniatis., Second edition, Ed. Molecular Cloning (Nolan, C., Ed.), Cold Spring Harbour, 1989) by Northern blotting.
Mouse B cell clone CH12F3-2 was cultured in the presence of one of the following regents for 12 hours. • (1) IL-4, TGF-β and CD40L only. • (2) Cycloheximide which is a protein synthesis inhibitor (200 ng/ml), only • (3) IL-4, TGF-β and CD40L as well as Cycloheximide (200 ng/ml)
Northern blotting was conducted against mRNA (10 μg for each group) obtained in the same manner as previously reported (Nucleic Acid Res., 26:911-918, 1998) from each group of treated cells using a radio-labeled cDNA fragment (1,020 bp) coding for a novel protein 23C9, obtained in the above Example, according to the standard method (L. Sambrook, E. F., Tom Maniatis., Second edition, Ed. Molecular Cloning (Nolan, C., Ed.), Cold Spring Harbour, 1989).
As a control experiment, Northern blotting was conducted for mRNA derived from B cell clone CH12F3-2 cultured without any one of the above cytokines, or cycloheximide.
The amount of mRNA to be electrophoresed was adjusted using the amount of mRNA for glyceraldehyde-3-phosphate dehydrogenase (GAPDH) as an index. […]

[3] = system: mouse B cell clone CH12F3-2; experiment: Production of looped-out circular DNA by class switch recombination (PCR, Southern hybridization); format: cell-based; settings: cycloheximide 200 ng/ml, 6 hours, stimulation with IL-4, TGF-β, CD40L
Protocol: CH12F3-2 B cells, either stimulated by IL-4, TGF-β, and CD40L or unstimulated, were cultured for 6 hours in the presence or absence of cycloheximide (200 ng/ml) which is a protein synthesis inhibitor, respectively. Genomic DNA was extracted from each cell, and PCR was conducted with the DNA as a template following standard methods to amplify circular DNA including an Sμ sequence and an Sα sequence. PCR was conducted using pairs of primers, αF1 and […], or αF1 and […].
As a control, genomic DNA encoding glyceraldehyde-3-phosphate dehydrogenase (GAPDH) was amplified by PCR.
The PCR products were subjected to gel electrophoresis and ethidium bromide staining. FIG. 1(a) and FIG. 2(a) show the results.
To confirm the presence or absence of the amplification of a circular DNA including the looped-out S region, Southern hybridization was conducted against the PCR products using a mouse Sa region gene as a hybridization probe, according to standard methods (L. Sambrook E. F., Tom Maniatis., Second edition, Ed. Molecular Cloning (Nolan, C., Ed.) Cold Spring Harbor, 1989). A 1,155 bp DNA fragment obtained by digesting 10 kb EcoRI cleaved fragment IgH703 with Hind III and Earl was used as an Sα gene (Genbank #D11468, DNA No. 1993-3148) (J, Biol. Chem., Vol. 268, p. 4651-4665). FIGS. 1(b) and 2(b) show the results.

T1 sequence (Q9WVE0 whole entry, the tested form may be a part): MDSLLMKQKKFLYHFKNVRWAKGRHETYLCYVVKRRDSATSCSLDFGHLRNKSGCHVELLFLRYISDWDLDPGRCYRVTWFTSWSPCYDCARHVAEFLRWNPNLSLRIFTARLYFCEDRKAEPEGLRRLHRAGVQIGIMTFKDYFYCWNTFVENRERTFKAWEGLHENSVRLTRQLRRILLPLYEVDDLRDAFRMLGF

| SMILES | inhibition of the cytidine deaminase activity of AID protein [1] | inhibition of the cytidine deaminase activity of AID protein (in words) [1] | induction of AID mRNA expression by cytokines [2] | production of looped-out DNA containing the Sα sequence with class switch recombination [3] |
| --- | --- | --- | --- | --- |
| c1cnc2c(c1)ccc1ncccc12 [1,7-o-phenanthroline] | about 13% | weak inhibition | – | – |
| c1cnc2c(c1)ccc1cccnc12 [1,10-o-phenanthroline] | about 91% | inhibits | – | – |
| C[C@@H]1C[C@@H]([C@H](O)CC2CC(=O)NC(=O)C2)C(=O)[C@@H](C)C1 [cycloheximide] | – | – | can be inhibited | inhibited |
